This note sets out measurements from patent US7994183B2, “Solid preparation comprising 2-[[6-[(3R)-3-amino-1-piperidinyl]-3,4-dihydro-3-methyl-2,4-dioxo-1(2H)-pyrimidinyl]methyl]-4-fluorobenzonitrile” (Takeda Pharmaceutical Company Limited, priority 2007, dated 2011).

The data set can be described thus: storage stability of compound (A) succinate alone or mixed with additive; amount of analogs by HPLC (Experimental Example 1A). The data set is classed as physicochemical. The method, then: Comparative Examples 1A, 2A and 3A were preserved in a glass bottle with an opened cap at 40° C., 75% RH for 2 weeks, and the amount of analogs due to decomposition of compound (A) was measured, based on which the storage stability was evaluated.
The amounts of the analogs were measured by high performance liquid chromatography (HPLC) under the conditions of Table 11A. As a result, an analogue that specifically increases at relative retention time (RRT) of about 1.65 was observed.

On to `Cn1c(=O)cc(N2CCC[C@@H](N)C2)n(Cc2cc(F)ccc2C#N)c1=O` [compound (A), 2-[[6-[(3R)-3-amino-1-piperidinyl]-3,4-dihydro-3-methyl-2,4-dioxo-1(2H)-pyrimidinyl]methyl]-4-fluorobenzonitrile], for which the “total amount of analogs (%)” value runs as follows: (40° C./75% RH 2 wk (with opened cap), glass bottle) 0.30%; (initial) 0.30%.
